Laboratory results reported in patent EP2735563A1, “Meta substituted 2-[phenoxy-phenyl]-1-[1,2,4]triazol-1-yl-ethanol compounds and their use as fungicides” (BASF SE, priority 2012, dated 2014).

What was measured:
Assay type in all cases: cell-based
Conditions in all cases: relative growth vs active compound-free control (100%), absorption at 405 nm 7 days after inoculation, 18°C
[1] = test system: Pyricularia oryzae
[2] = test system: Botrytis cinerea; test: Activity against the grey mold Botrytis cinerea in the microtiterplate test (Botrci)
[3] = test system: Septoria tritici; test: Activity against leaf blotch on wheat caused by Septoria tritici (Septtr), microtiter plate test

Structure (SMILES)	Growth (%) at 31 ppm Pyrior [1]	Growth (%) at 31 ppm Botrci [2]	Growth (%) at 31 ppm Septtr [3]
OC(Cn1cncn1)c1ccc(Oc2ccc(Cl)cc2)c(Cl)c1 (centres unmarked) [Compound I-2, 1-[3-Chloro-4-(4-chlorophenoxy)phenyl]-2-(1,2,4-triazol-1-yl)ethanol]	1%	13%	–
COC(C)(Cn1cncn1)c1ccc(Oc2ccc(Cl)cc2)c(Cl)c1 (centres unmarked) [Compound I-3, 1-[2-[3-chloro-4-(4-chlorophenoxy)phenyl]-2-methoxy-propyl]-1,2,4-triazole]	0%	–	–
CC(O)(Cn1cncn1)c1ccc(Oc2ccc(Cl)cc2)c(Cl)c1 (centres unmarked) [Compound I-4, 2-[3-chloro-4-(4-chlorophenoxy)phenyl]-1-(1,2,4-triazol-1-yl)propan-2-ol]	0%	17%	–
CC(O)(Cn1cncn1)c1ccc(Oc2ccc(Cl)cc2)c(C(F)(F)F)c1 (centres unmarked) [Compound I-5]	0%	–	14%
COC(C)(Cn1cncn1)c1ccc(Oc2ccc(Cl)cc2)c(C(F)(F)F)c1 (centres unmarked) [Compound I-6]	0%	–	–
